Experimental data published in patent publication US5455267A, “Chromone derivative, and aldose reductase inhibitor comprising said compound as active component” (Tsumura & Co., priority 1990, dated 1995).
Where a name gives a salt, the structure may show the parent alone. Read-outs that look alike come from different tables or passages of the source.

Columns and labels:
[1] = tested on: sorbitol contained in the sciatic nerves (aldose reductase); experiment: Determination of Aldose Reductase Activity (In Vivo): sorbitol in sciatic nerves of STZ diabetic rats; design: species or system Wistar male rats; settings: Rattus norvegicus, po, 336 h, Table 3, sciatic nerve sorbitol, read-out: Repression rate %; for inhibition in vivo at 50 mg/kg: 50 mg/Kg orally; for inhibition in vivo at 30 mg/kg: 30 mg/kg orally for 2 weeks
Method: Streptozotocin (STZ) dissolved in 10 mM citrate buffer (pH 4.5) was administered intravenously to 6 week-old Wistar male rats […] in an amount of 65 mg/kg. 48 hours thereafter, blood was collected from the carotid […] of the rats. Rats with a blood glucose level of 200 mg/dl or more were classified as those with diabetes. Rats with a persistent high level of blood sugar were employed in the experiment. The blood glucose level was determined by the glucose oxidase method. 2 weeks after administration of STZ, a compound obtained in the following examples was suspended in purified water or 0.5% carboxy sodium cellulose solution. This solution was orally administered into a rat in an amount of 30 mg/kg for 2 weeks. 2 weeks after the adminstration, sciatic nerves were removed from the rat under ether anesthesia. The sciatic nerves were weighed and stored at -20° C. The amount of sorbitol contained in the sciatic nerves was determined as follows. That is, the sciatic nerves were subjected to extraction with 1 ml of purified water containing 10 gg/ml arabinitol at 100° C. for 20 min., followed by addition of 0.2 ml each of 0.2M barium hydroxide and 0.19M zinc sulfate. […] The resulting sample was […] then analyzed by gas chromatography. Sorbitol is an intermediate which occurs during convertion of glucose to fructose by aldose reductase, and this intermediate is accumulated together with fructose in the crystalline lenses and sciatic nerves, particularly under a high level of blood glucose. Therefore, the smaller amount of sorbitol formed indicates higher inhibition of aldose reductase.

aldose reductase = biological target: T1, aldose reductase (Rattus norvegicus, UniProt P07943); experiment: Determination of Aldose Reductase Activity (In Vitro); format: biochemical, rat (Wistar); settings: for inhibition at 10 µM: at the concentration of 10 μM, read-out: Inhibition rate %
T1 construct: The crystalline lenses were homogenized in 135 mM sodium-potassium-phosphate buffer (pH 7.0) and centrifuged; from tissue; host or cells: lens of 6 week-old Wistar rats (30,000 rpm supernatant of homogenate)
Method: 6 week-old Wistar rats were sacrificed under ether anesthesia, and immediately lenses were removed and stored at -20° C. The crystalline lenses were homogenized in 135 mM sodium-potassium-phosphate buffer (pH 7.0) and centrifuged for 30 min. at 30,000 rpm. The supernatant was used as an aldose-reductase solution. The above procedure was carried out at 4° C. The enzyme solution was stored at -20° C.
The measurement of aldose reductase activity was conducted according to the method as described by Duffane et al. (Biochemical Medicine, 32:99-105 (1984)).
That is, 100 gl of the above enzyme solution and 100 gl of a solution prepared by dissolving a compound obtained in the following example to a final concentration of from 1.0×10^-5 to 4.0×10^-7 M in dimethylsulfoxide (DMSO) were added to 800 gl of 135 mM sodium-potassium-phosphate buffer (pH 7.0) containing 100 mM lithium sulfate, 0.03 mM NADPH (reduced form of nicotinamide adeninc dinucleotide phosphate) and 20 mM glucose as a substrate. The sample was allowed to react for 30 min. at 30° C. The reaction was stopped by addition of 0.3 ml of 0.5N hydrochloric acid. The NADP (oxided form of nicotinamide adenine dinucleotide) formed during the above reaction was converted into a fluorescent substance by addition of 1 ml of 6N sodium hydroxide containing 10 mM imidazole. 30 min. thereafter, the sample was measured for fluorescence intensity at the fluorescence wavelength of 460 nm (excitation wavelength: 360 nm) using a fluorescence photometer F-4000 (manufactured by Hitachi, Ltd.) at room temperature. A sample containing DMSO in place of the present compound was used as a control, and its fluorescence intensity was determined in the same manner as above.
Aldose reductase is an enzyme to convert DL-glyceraldehyde or glucose into polyol in the presence of NADPH as a coenzyme. As this reaction proceeds, NADPH is converted into NADP, so that the smaller amount of NADP formed indicates higher inhibition of aldose reductase. […]

aldehyde reductase = biological target: T2, aldehyde reductase (Rattus norvegicus, UniProt P51635); experiment: Ability of Selective Inhibition of Aldose Reductase (aldehyde reductase activity); format: biochemical; settings: for IC50: Table 4, rat kidney aldehyde reductase, 50 mM DL-glyceraldehyde, pH 7.0, read-out: 50% Inhibition conc [IC50 (M)] Aldehyde reductase
T2 construct: The supernatant thus obtained was subjected to 30-60% ammonium sulfate fractionation; from tissue; host or cells: rat kidney (30-60% ammonium sulfate fraction of homogenate supernatant, dialyzed)
T2 sequence (P51635 1-325): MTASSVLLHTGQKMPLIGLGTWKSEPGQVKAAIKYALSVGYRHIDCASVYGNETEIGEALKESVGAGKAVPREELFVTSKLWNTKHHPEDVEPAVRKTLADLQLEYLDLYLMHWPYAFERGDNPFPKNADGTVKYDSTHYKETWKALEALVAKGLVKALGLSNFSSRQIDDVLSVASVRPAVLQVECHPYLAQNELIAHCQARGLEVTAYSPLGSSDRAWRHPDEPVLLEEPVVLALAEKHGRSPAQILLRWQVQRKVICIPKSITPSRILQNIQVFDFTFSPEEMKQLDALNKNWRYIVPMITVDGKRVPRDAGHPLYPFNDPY
Method: From rats under ether anesthesia, the kidneys were removed and stored at -20 ° C. The kidneys were homogenized in 0.1M phosphate buffer (pH 7.2) containing 5 mM 2-mercaptoethanol (kidneys: buffer =1:10 (by volume)), followed by centrifugation (14,000 rpm, 20 min., 4° C.), whereby a supernatant was obtained. The supernatant thus obtained was subjected to 30-60% ammonium sulfate fractionation. The resulting precipitates were collected by centrifugation (9,200 rpm, 20 min., 4° C.) The precipitates were suspended in a buffer with the same composition as described above. This suspension was dialyzed overnight at 4° C. against a buffer with the same composition, so that a crude aldehyde reductase solution was obtained. The activity of aldehyde reductase was determined in the same manner as for aldose reductase except for use of 0.1M phosphate buffer (pH 7.0) and as substrate 50 mM DL-glyceraldehyde.
The ability of selective inhibition of aldose reductase was determined by dividing the thus obtained 50% inhibition concentration [IC50 (M)] of aldehyde reductase by the above 50% inhibition concentration [IC50 (M)]of aldose reductase.

[2] = Table 3, rat lens aldose reductase, 20 mM glucose, 30 min, 30° C, pH 7.0, read-out: 50% Inhibition Conc. [IC50 (M)]
[3] = Table 4, aldose reductase, read-out: 50% Inhibition conc [IC50 (M)] Aldose reductase

inhibition at 10 µM (aldose reductase; Table 3) [%] | IC50 (aldose reductase; [2]) [M] | IC50 (aldehyde reductase) [M] | Structure (SMILES) | inhibition in vivo at 30 mg/kg [1] [%] | further results
93.2 | 6e-08 | > 0.0001 | CCC(CC)Oc1cc2oc(Sc3ccc(O)cc3)cc(=O)c2c(OC)c1OC [Example 25, 5,6-dimethoxy-7-(1-ethylpropoxy)-2-(4-hydroxyphenylthio)chromone] |  | inhibition in vivo at 50 mg/kg [1]: 16%
94.5 |  | 1e-05 | COc1c(O)cc2oc(Sc3ccc(O)cc3)cc(=O)c2c1O [Compound (Formula B), reference compound] |  | IC50 (aldose reductase; [3]): 1.8e-07 M; Ability of selective inhibition (aldehyde reductase; IC50 of aldehyde reductase divided by IC50 of aldose reductase): 55.5
81 | 1.6e-06 |  | COc1c(O)cc2oc(Oc3ccc(O)cc3)cc(=O)c2c1O [Capillarisin, reference compound] |  | inhibition in vivo at 100 mg/kg ([1]; 100 mg/kg orally): 18.9%
98.3 | 3e-08 | > 0.0001 | COc1c(OC(C)C)cc2oc(Sc3ccc(O)cc3)cc(=O)c2c1OC [Example 22, 5,6-dimethoxy-2-(4-hydroxyphenylthio)-7-isopropoxychromone] |  | inhibition in vivo at 50 mg/kg [1]: 6.8%
97.3 | 1.1e-07 | > 0.0001 | COc1cc2oc(Sc3ccc(O)cc3)cc(=O)c2c(OC)c1OC [Example 1, 2-(4-hydroxyphenylthio)-5,6,7-trimethoxychromone] |  | 
98.7 |  | > 0.0001 | CCOc1c(OC)c(OC(C)C)cc2oc(Sc3ccc(O)cc3)cc(=O)c12 [Example 18, 5-ethoxy-2-(4-hydroxyphenylthio)-7-isopropoxy-6-methoxychromone] |  | inhibition in vivo at 50 mg/kg [1]: 5.9%; IC50 (aldose reductase; [3]): 1.8e-08 M
96.7 | 1.1e-07 | 0.0001 | CCC(CC)Oc1cc2oc(Sc3ccc(O)cc3)cc(=O)c2c(O)c1OC [Example 33, 7-(1-ethylpropoxy)-5-hydroxy-2-(4-hydroxyphenylthio)-6-methoxychromone] |  | 

Continued, compound first:

Structure (SMILES) | inhibition at 10 µM (aldose reductase; Table 3) [%] | IC50 (aldose reductase; [2]) [M] | IC50 (aldehyde reductase) [M] | inhibition in vivo at 30 mg/kg [1] [%] | further results
CCC(CC)Oc1cc2oc(Sc3ccc(OC(=O)CN)cc3)cc(=O)c2c(OC)c1OC [Compound 1 obtained in Example 37, 7-(1-ethylpropoxy)-5,6-dimethoxy-2-(4-glycyloxyphenylthio)chromone hydrochloride] |  |  |  | 51.6 | 
CCC(CC)Oc1cc2oc(Sc3ccc(OC(=O)c4ccc(CN5CCN(C)CC5)cc4)cc3)cc(=O)c2c(OC)c1OC [Compound 2 obtained in Example 39, 5,6-dimethoxy-7-(1-ethylpropoxy)-2-{4-[4-(4-methylpiperazinomethyl)benzoyloxy]phenylthio}chromone dihydrochloride] |  |  |  | 4.6 | 
COc1c(OC(C)C)cc2oc(Sc3ccc(OC(=O)CN)cc3)cc(=O)c2c1OC [Example 35, 5,6-dimethoxy-2-(4-glycyloxyphenylthio)-7-isopropoxychromone hydrochloride] |  |  |  | 43.7 | 
CCOc1c(OC)c(OC(C)C)cc2oc(Sc3ccc(OC(=O)CN)cc3)cc(=O)c12 [Example 36, 5-ethoxy-2-(4-glycyloxyphenylthio)-7-isopropoxy-6-methoxychromone hydrochloride] |  |  |  | 12.3 | 
CCC(CC)Oc1cc2oc(Sc3ccc(OC(=O)c4ccc(CN5CCN(C)CC5)cc4)cc3)cc(=O)c2c(O)c1OC [Example 40, 7-(1-ethylpropoxy)-5-hydroxy-2-{4-[4-(4-methylpiperazinomethyl)benzoyloxy]phenylthio}-6-methoxychromone dihydrochloride] |  |  |  | 27.9 | 
CCC(C)Oc1cc2oc(Sc3ccc(O)cc3)cc(=O)c2c(OC)c1OC (stereo not drawn) [Example 23, 7-s-butoxy-5,6-dimethoxy-2-(4-hydroxyphenylthio)chromone] | 100 | 4.4e-08 | > 0.0001 |  | 
CCC(C)Oc1cc2oc(Sc3ccc(O)cc3)cc(=O)c2c(OC(C)C)c1OC (stereo not drawn) [Example 16, 7-s-butoxy-2-(4-hydroxyphenylthio)-5-isopropoxy-6-methoxychromone] | 96.5 | 3.8e-08 | > 0.0001 |  | 
